Assay results reported in PMC6941357, “An in vitro toolbox to accelerate anti-malarial drug discovery and development” (Malaria Journal, 2020).
In brackets after ≈: the same amount, converted by molar mass. Where two headings read alike, the source gives them in different places.

Tests used:
[1] = Solubility limited absorbable dose (SLAD) calculation with predicted human jejunal Peff; details: for solubility: FaSSIF
Description: Predicted Peff values were obtained from a calibration plot of literature Peff values vs measured Caco-2 Papp using either buffer or plasma as the transport medium (see Results section).

CYP1A2 = target: T1, CYP1A2 (Homo sapiens, UniProt P05177); experiment: Cytochrome P450 inhibition in human liver microsomes
T1 sequence (P05177 1-516): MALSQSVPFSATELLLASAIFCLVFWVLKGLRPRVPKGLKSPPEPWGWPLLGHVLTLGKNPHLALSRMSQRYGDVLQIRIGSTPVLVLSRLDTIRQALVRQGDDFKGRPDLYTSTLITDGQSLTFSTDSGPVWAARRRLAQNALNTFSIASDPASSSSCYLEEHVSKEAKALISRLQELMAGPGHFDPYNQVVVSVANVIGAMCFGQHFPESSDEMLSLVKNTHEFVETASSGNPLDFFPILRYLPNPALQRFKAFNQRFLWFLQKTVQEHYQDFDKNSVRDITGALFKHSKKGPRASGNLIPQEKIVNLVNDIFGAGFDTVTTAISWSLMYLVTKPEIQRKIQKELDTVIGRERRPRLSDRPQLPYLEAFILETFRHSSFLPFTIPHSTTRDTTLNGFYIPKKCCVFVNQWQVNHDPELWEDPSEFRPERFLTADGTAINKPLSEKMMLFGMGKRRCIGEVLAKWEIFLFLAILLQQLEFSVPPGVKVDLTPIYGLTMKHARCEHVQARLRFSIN
Summary of the method: (§1)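 Each compound is incubated with human liver microsomes and a probe substrate whose conversion is mediated by one CYP isoform. Reactions are then quenched with ice-cold acetonitrile, and the metabolite is determined by LC–MS.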

CYP2D6 = CYP2D6 (Homo sapiens, UniProt P10635); experiment: as above; details: for CYP2D6 % inhibition at max conc / inhibition at 20 µM: microsomes; for inhibition at 20 µM: human, pH 7.4
Summary of the method: as §1

[2] = target: T2, Albumax medium (lipid rich bovine serum albumin) (Bos taurus, UniProt P02769); experiment: Binding in Albumax medium via ultracentrifugation; format: in vitro ADME; details: bovine, isolated protein, pH 7.4
T2 construct: purchased Gibco, Thermo Fisher Scientific
Summary of the method: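 Unbound fraction (fu) taken as protein-free supernate concentration over total concentration after ultracentrifuging compound-spiked Albumax at 37 °C (5% or 10% CO2, or air). Analysis used 1:1 mixing with the opposite blank matrix against a common pH 7.4 calibration; degradation judged by start versus end Ctotal.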

[3] = In vitro metabolism (metabolic stability) in human liver microsomes; details: human
Summary of the method: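 Compound depletion in human liver microsomes was followed by LC–MS at 2–60 min, with cofactor-free controls. First-order depletion rate constants gave in vitro CLint (µL/min/mg protein), corrected to unbound CLint using measured microsomal fu.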

[4] = Octanol/pH 7.4 buffer partition coefficient, shake flask; details: pH 7.4
Summary of the method: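 Octanol stocks (3-30 mg/mL) were diluted 3- and 10-fold and shaken with equal volumes of pH 7.4 phosphate buffer (67 mM, in 43 mM NaCl) at 37 °C. Both phases were quantified by LC-MS against calibration standards. The coefficient is the mean octanol/buffer concentration ratio, with two time points confirming equilibrium.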

[5] = Plasma protein binding via ultracentrifugation (UC); format: in vitro ADME, human; details: pH 7.4
Summary of the method: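 Pooled human plasma (3–4 donors) spiked and ultracentrifuged; protein-free supernate gave Cunbound, parallel tubes kept at 37 °C gave Ctotal and stability (start vs end). Samples matrix-matched 1:1 with opposite blank and quantified against a common calibration curve; fu SD by error propagation.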

[6] = based on ref 80 and control compounds
[7] = from Caco-2 Papp via calibration plot
[8] = liver microsomes, pH 7.4, HLM CLint, human liver microsomes, average of n = 2 replicates, < 7 means < 15% loss over 60 min
[9] = human, neat pooled plasma, ultracentrifugation, neat plasma, read-out: Fraction unbound, human plasma

Chain of CYP2D6 (P10635 whole entry): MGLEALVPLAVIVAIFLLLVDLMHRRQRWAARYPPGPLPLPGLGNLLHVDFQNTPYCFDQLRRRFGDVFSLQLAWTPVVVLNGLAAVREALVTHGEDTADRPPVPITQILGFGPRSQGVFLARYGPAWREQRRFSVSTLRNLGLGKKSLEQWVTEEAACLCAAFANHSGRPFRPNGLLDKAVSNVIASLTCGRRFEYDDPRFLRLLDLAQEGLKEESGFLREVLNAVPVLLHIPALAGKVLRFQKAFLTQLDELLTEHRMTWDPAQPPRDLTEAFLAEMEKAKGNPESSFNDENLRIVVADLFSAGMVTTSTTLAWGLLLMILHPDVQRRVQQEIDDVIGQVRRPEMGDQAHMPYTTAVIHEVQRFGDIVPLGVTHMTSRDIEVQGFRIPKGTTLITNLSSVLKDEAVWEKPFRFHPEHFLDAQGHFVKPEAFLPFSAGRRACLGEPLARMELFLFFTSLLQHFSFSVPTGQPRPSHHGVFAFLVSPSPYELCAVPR
T2 sequence (P02769 25-607): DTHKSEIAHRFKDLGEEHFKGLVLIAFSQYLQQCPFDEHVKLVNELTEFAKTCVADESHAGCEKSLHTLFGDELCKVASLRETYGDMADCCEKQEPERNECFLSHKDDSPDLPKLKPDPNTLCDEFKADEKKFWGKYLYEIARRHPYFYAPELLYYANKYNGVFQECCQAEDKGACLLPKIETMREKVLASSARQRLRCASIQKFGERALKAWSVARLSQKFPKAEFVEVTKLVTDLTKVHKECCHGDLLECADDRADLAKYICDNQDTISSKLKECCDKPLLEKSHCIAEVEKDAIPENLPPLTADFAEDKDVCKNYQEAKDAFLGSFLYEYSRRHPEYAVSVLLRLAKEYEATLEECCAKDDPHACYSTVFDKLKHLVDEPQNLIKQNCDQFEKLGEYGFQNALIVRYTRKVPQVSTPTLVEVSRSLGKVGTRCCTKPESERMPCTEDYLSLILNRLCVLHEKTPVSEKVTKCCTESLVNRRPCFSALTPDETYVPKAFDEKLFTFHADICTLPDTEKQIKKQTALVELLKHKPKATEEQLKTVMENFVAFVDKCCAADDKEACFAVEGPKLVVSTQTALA

Row | Compound | An (absorption number) ([1]; Peff × tres/R, minimum 1) | SLAD ([1]; Ssi × V (500 mL) × Mp) [mg] | Permeability classification [1, 6] | Predicted human Peff [1, 7] | IC50 (CYP1A2) [µM] | CYP1A2 % inhibition at max conc (CYP1A2; microsomes) | IC50 (CYP2D6) [µM] | fraction unbound at […], 500 ng/mL [2] | microsomal CLint at 1 µM [3, 8] [µL/min/mg] | logD ([4]; octanol/pH 7.4 buffer) | fraction unbound at […] [5, 9] | solubility [1] [µg/mL] | inhibition at 20 µM (CYP2D6) [%] | Ki (CYP2D6) [nM] | also measured
1 | CC[C@H]1OC(=O)[C@H](C)[C@@H](O[C@H]2C[C@@](C)(OC)[C@@H](O)[C@H](C)O2)[C@H](C)[C@@H](O[C@@H]2O[C@H](C)C[C@H](N(C)C)[C@H]2O)[C@](C)(O)C[C@@H](C)CN(C)[C@H](C)[C@@H](O)[C@]1(C)O [Azithromycin] | 1.0 | 720 | Low (< 50% absorption (low)) | 0.16 10^−4 cm/s | > 20 | nmi | > 20 | 0.76 ± 0.065 | < 7 | 1.1 | 0.71 |  |  |  | CYP2D6 % inhibition at max conc (CYP2D6): nmi
2 | CO[C@H]1O[C@@H]2O[C@@]3(C)CC[C@H]4[C@H](C)CC[C@@H]([C@H]1C)[C@@]24OO3 [Artemether] | 4.7 | 388 | High (> 85% absorption (high)) | 3.9 10^−4 cm/s | > 20 | nmi | > 20 | 0.46 ± 0.039 | 163 | 3.7 | 0.1 | 166 (≈ 556 µM) |  |  | CYP2D6 % inhibition at max conc (CYP2D6): nmi
3 | Cc1nc(Nc2ncc(N3CCN(C)[C@H](C)C3)c(Nc3cc(C)n(C)n3)n2)cc(C2CC2)c1F [MMV253] | 8.1 | 2300 | High (> 85% absorption (high)) | 6.8 10^−4 cm/s | > 20 | nmi | > 20 | 0.48 ± 0.026 | 13.2 | 4.42 | 0.067 | 569 (≈ 1220 µM) | 35 |  | 
4 | CC(C)(N)CNC(=O)C[C@H]1CC[C@]2(CC1)OO[C@]1(O2)C2CC3CC(C2)CC1C3 [OZ277, Arterolane] | 3.2 | > 3240 | High (> 85% absorption (high)) | 2.7 10^−4 cm/s | > 20 |  | > 20 | 0.29 ± 0.021 |  | 2.6 | 0.086 ± 0.008 | > 2000 |  |  | CYP1A2 % inhibition at max conc (CYP1A2; human liver microsomes, at max conc, nmi = no measurable inhibition): nmi; microsomal CLint at 1 µM ([3]; microsomes, pH 7.4, HLM CLint): < 7 µL/min/mg; logD ([4]; octanol/pH 7.4 phosphate buffered saline): 2.6; fraction unbound at […] ([5]; human plasma, fraction unbound, read-out: Plasma fu): 0.086
5 | COc1cc(NC(C)CCCN)c2ncccc2c1 (stereo not drawn) [Primaquine] |  |  |  |  |  |  |  | 0.96 ± 0.056 |  |  |  | > 2000 | 33 |  | Permeability classification [1]: High (key: High: > 85% absorption (high); Intermediate: 50–84% absorption (intermediate); Low: < 50% absorption (low)); An (absorption number) ([1]; human): 3.6; Predicted human Peff ([1]; human): 3.0 10^−4 cm/s; SLAD ([1]; human): > 3560 mg; microsomal CLint at 1 µM ([3]; microsomes, pH 7.4): 7.7 µL/min/mg; Log D7.4 [4]: 0.54; logD [4]: 0.54; fraction unbound at […] ([5]; human, ultracentrifugation, neat plasma, read-out: Fraction unbound, human plasma): 0.26 ± 0.023
6 | COc1ccc2nc3cc(Cl)ccc3c(Nc3cc(CN4CCCC4)c(O)c(CN4CCCC4)c3)c2n1 [Pyronaridine] | 1.6 | > 1610 | High (> 85% absorption (high)) | 1.4 10^−4 cm/s | > 20 |  | 1.2 | 0.69 ± 0.023 | 8.6 | 0.23 | 0.21 | > 2000 |  | 750 | inhibition at 20 µM (CYP1A2; human, microsomes, pH 7.4): 30%
7 | [H]/N=C(\N/C(=N/[H])Nc1ccc(Cl)cc1)NC(C)C [Proguanil] | 1.0 | > 1000 | Intermediate (50–84% absorption (intermediate)) | 0.71 10^−4 cm/s | > 20 | nmi | 3.5 | 0.8 ± 0.021 | < 7 | 0.27 | 0.34 ± 0.01 | > 2000 |  | 2200 | 
8 | CS(=O)(=O)c1ccc(-c2cnc(N)c(-c3ccc(C(F)(F)F)nc3)c2)cc1 [MMV048] | 4.5 | 15 | High (> 85% absorption (high)) | 3.8 10^−4 cm/s | > 20 | nmi | > 20 | 0.46 ± 0.022 | < 7 | 2.5 | 0.17 | 6.7 (≈ 17 µM) | 16 |  | 
9 | CCc1nc(N)nc(N)c1-c1ccc(Cl)cc1 [Pyrimethamine] | 5.9 | 326 | High (> 85% absorption (high)) | 4.9 10^−4 cm/s | > 20 | nmi | > 20 | 0.46 ± 0.09 | < 7 | 2.41 | 0.085 |  | 36 |  | 
10 | N#Cc1cc(NC(=O)[C@H]2c3ccccc3C(=O)N(CC(F)(F)F)[C@@H]2c2cccnc2)ccc1F [SJ733] | 2.2 | 109 | High (> 85% absorption (high)) | 1.8 10^−4 cm/s | > 20 | nmi | 16 | 0.4 ± 0.04 | 142 | 3.9 | 0.17 | 101 (≈ 216 µM) |  | 9600 | 
11 | CCNCc1cc(Nc2ccnc3cc(Cl)ccc23)ccc1O [Desethylamodiaquine] |  |  |  |  | > 18 | nmi | 2.6 | 0.75 ± 0.074 | 13.3 | 1.3 | 0.17 ± 0.002 |  |  | 1600 | 
